{
  "source": "patent US12227653B2",
  "about": "“Fluorinated coumarins” (3M INNOVATIVE PROPERTIES COMPANY, priority 2019, dated 2025)",
  "assay_type_in_all_cases": "physicochemical",
  "key": {"[1]": {"assay": "UV/Vis Test Method", "conditions": "diluted into HFE 7200, 1 cm quartz cuvette", "experimental": "Unless otherwise mentioned, the sample was diluted into HFE 7200 and spectra were collected on an Ultraviolet-Visible (UV/Vis) spectrometer (available under the trade designation “CARY 8454” from Agilent Technologies, Inc, Santa Clara, CA) using 1 cm quartz cuvettes."}, "[2]": {"assay": "Solubility Test Method in fluorinated fluids", "conditions": "for solubility: organic solvent or mixture, thermodynamic from solid", "experimental": "For compounds 4 and 5, a known amount of material was weighed into a scintillation vial and 1 mL of each solvent was volumetrically added followed by sonication for dissolution. For samples that completely dissolved, the formed solution was then added to additional aliquots of sample in an attempt to generate a saturated solution. […] In the case of compound 8, approximately 100 mg was suspended in 10 mL of each solvent and shaken for 1-2 h, after which the solution was filtered via syringe filter into a tared vial and the solution mass measured. The solvent was evaporated in vacuo and the mass of the remaining residue was recorded.\nThese samples were repeated using less mass of Molecule 5. […] It is believed that some molecules may have a tendency to gel at high concentrations (e.g., the molecule comprises more than 50 wt % of the composition)."}, "[3]": {"assay": "Fluorescence Test Method", "conditions": "in CHCl3 instead of HFE 7200", "experimental": "Unless otherwise mentioned, the sample was diluted into HFE 7200 and spectra were collected on a fluorimeter (available under the trade designation “FLUOROLOG 3-21 HR” from Jobin-Yvon Horiba, Inc., Edison, NJ) in a 1 cm fluorescence cuvette under the following experimental parameters: • Orientation: 10 degree (front face) • EX Slit Width: 1.0 nm • EM Slit Width: 1.0 nm • EX Data Interval: 5 nm • EM Data Interval: 5 nm • EX Wavelength range: 300 nm to 500 nm • EM Wavelength range: 400 nm to 650 nm"}},
  "data": [
    {"compound": "Cc1cc(=O)oc2cc(OCCCCCN(C)S(=O)(=O)C(F)(F)C(F)(F)C(F)(F)C(F)(F)F)ccc12", "note": "[Molecule 8]", "values": [
      {"measurement": "λmax from the UV/Vis test", "setting": "[1]", "result": 320, "unit": "nm"},
      {"measurement": "solubility", "setting": "[2]; solvent HFE 7200", "result": 1570, "unit": "µg/mL"},
      {"measurement": "solubility", "setting": "[2]; solvent PF-5052", "result": 4070, "unit": "µg/mL"},
      {"measurement": "Solubility (g/mL)", "setting": "[2]; solvent FC-70", "result": "Insoluble"},
      {"measurement": "wt % of solution", "setting": "[2]; solvent FC-70", "result": 0, "unit": "wt %"},
      {"measurement": "wt % of solution", "setting": "[2]; solvent HFE 7200", "result": 0.1, "unit": "wt %"},
      {"measurement": "wt % of solution", "setting": "[2]; solvent PF-5052", "result": 0.2, "unit": "wt %"},
      {"measurement": "fluorescence emission λmax", "setting": "[3]", "result": 380, "unit": "nm"},
      {"measurement": "fluorescence excitation λ", "setting": "[3]", "result": 320, "unit": "nm"}
    ]}
  ]
}
